ED50 and MIC data for four molecules are collected here from patent US4753953A, “Pyridonecarboxylic acid derivatives and antibacterial pharmaceutical compositions thereof” (priority 1985, dated 1988).

The term ED50 denotes the midpoint of the dose-response relation. A lower ED50 goes with an effect at a small dose.

The test system of test [1] is MR S. aureus KYB 623. In words: Therapeutic efficacy against systemic infections in mice, MR S. aureus KYB 623. The following applies: Staphylococcus aureus, in Mus musculus, po, 1 h.
For test [2], the system named is F. necrophorum S-45. In words: MIC, in vitro antibacterial activity (standard strains). Type of test: cell-based. The following applies: Fusobacterium necrophorum, S45; 10^6 cells/ml; Gram -; read-out: MIC.
In test [3] the test system is Eubacterium lentum GAI 5242. The test is described as above. Type of test: cell-based. As to conditions: Eggerthella lenta, GAI5242; 10^6 cells/ml; Gram +; read-out: MIC.
Test [4] concerns P. aeruginosa IFO 12689. The test is described as above. The following applies: Pseudomonas aeruginosa, IFO12689; 10^6 cells/ml; Gram -; read-out: MIC. Format: cell-based, Pseudomonas aeruginosa.
For test [5], the system named is B. fragilis 0558. The test is described as above. The following applies: Bacteroides fragilis, 0558; 10^6 cells/ml; Gram -; read-out: MIC. Type of test: cell-based, Bacteroides fragilis.
The subject of test [6] is Staphylococcus aureus 209 P. The description is as above. Format: cell-based. As to conditions: Staphylococcus aureus, 209P; 10^6 cells/ml; Gram +; read-out: MIC.
The test system of test [7] is C. perfringens KYA 13123. In words: microbe, parasite or virus in culture. Format: cell-based. The following applies: Clostridium perfringens, KYA13123.
Test [8] deals with Peptococcus magnus KY 017. In words: MIC, in vitro antibacterial activity (standard strains). Type of test: cell-based. The following applies: Finegoldia magna, KY017; 10^6 cells/ml; Gram +; read-out: MIC.
In test [9] the test system is Enterobacter cloacae IID 977. The description is as above. Type of test: cell-based. The following applies: Enterobacter cloacae, IID977; 10^6 cells/ml; Gram -; read-out: MIC.
For test [10], the system named is P. cepacia GIFU 518. The test is described as above. As to conditions: Burkholderia cepacia, GIFU518. Type of test: cell-based.
Test [11] has as its system MR S. aureus KYB 623. In words: MIC of the infecting strain MR S. aureus KYB 623. The following applies: Staphylococcus aureus; Table 3, strain of the mouse infection. Format: cell-based.
In test [12] the test system is Propionibacterium acens 11828. In words: MIC, in vitro antibacterial activity (standard strains). Type of test: cell-based. The following applies: Propionibacterium, 11828; 10^6 cells/ml; Gram +; read-out: MIC.
In test [13] the test system is E. coli ML 4707. Described as above. As to conditions: Escherichia coli. Type of test: cell-based, Escherichia coli.
Test [14] has as its system Yersinia enterocolitica IID 981. The test is described as above. Type of test: cell-based. The following applies: Yersinia enterocolitica, IID981; 10^6 cells/ml; Gram -; read-out: MIC.
The subject of test [15] is Acinetobacter anitratus IID 876. The description is as above. As to conditions: Acinetobacter calcoaceticus, IID876; 10^6 cells/ml; Gram -; read-out: MIC. Type of test: cell-based.
In test [16] the test system is Serratia marcescens IID 618. The description is as above. Type of test: cell-based. As to conditions: Serratia marcescens, IID618; 10^6 cells/ml; Gram -; read-out: MIC.
For test [17], the system named is Alcaligenes faecalis 0114002. The description is as above. Format: cell-based. The following applies: Alcaligenes faecalis, 0114002; 10^6 cells/ml; Gram -; read-out: MIC.
Test [18] has as its system Shigella sonnei IID 969. Described as above. Format: cell-based. The following applies: Shigella sonnei, IID969; 10^6 cells/ml; Gram -; read-out: MIC. Here is the method: Minimal inhibitory concentrations (MICs) were determined in accordance with the method recommended by Japan Society of Chemotherapy.
The subject of test [19] is E. coli ML 4707. In words: Therapeutic efficacy against systemic infections in mice, E. coli ML 4707. The following applies: Escherichia coli, ML4707, in Mus musculus, po, 1 h.
The test system of test [20] is S. pneumoniae S-4288. In words: MIC of the infecting strain S. pneumoniae S-4288. The following applies: Streptococcus pneumoniae, S4288; Table 4, strain of the mouse infection. Type of test: cell-based.
Test [21] relates to S. pneumoniae S-4288. In words: Therapeutic efficacy against systemic infections in mice, S. pneumoniae S-4288. The following applies: Streptococcus pneumoniae, S4288, in Mus musculus, po, 1 h.
For test [22], the system named is E. limosum KYA 8486. In words: MIC, in vitro antibacterial activity (standard strains). Format: cell-based. The following applies: Eubacterium limosum, KYA8486; 10^6 cells/ml; Gram +; read-out: MIC.
The mark [23] stands for this setting: ML4707, 10^6 cells/ml, Gram -, Table 1, read-out: MIC.
The mark [24] stands for this setting: 10^6 cells/ml, Gram -, read-out: MIC.
Where [25] appears, read: ML4707, Table 2, strain of the mouse infection, read-out: MIC.

In brackets after ≈: the same amount, converted by molar mass. Read-outs that look alike come from different tables or passages of the source.

As to `C[C@@H]1CN(c2c(F)cc3c(=O)c(C(=O)O)cn(C4CC4)c3c2Cl)C[C@H]1N` (relative stereo) [Example 17, 7-(trans-3-Amino-4-methyl-1-pyrrolidinyl)-8-chloro-1-cyclopropyl-6-fluoro-1,4-dihydro-4-oxo-3-quinolinecarboxylic acid], the 50% effect level in test [1] (ED50) was put at a dose of 2.1 mg/kg. Also, the MIC in test [2] was 0.05 µg/mL (≈ 0.132 µM); in test [3], 0.05 µg/mL (≈ 0.132 µM); in test [4] it was 0.39 µg/mL (≈ 1.03 µM); in test [5] it was 0.05 µg/mL (≈ 0.132 µM); in test [6] it was 0.025 µg/mL (≈ 0.0658 µM); in [7], 0.05 µg/mL (≈ 0.132 µM). The MIC is 0.05 µg/mL (≈ 0.132 µM) in [8]; 0.05 µg/mL (≈ 0.132 µM) in test [9]; 0.2 µg/mL (≈ 0.527 µM) in [10]; 0.0125 µg/mL in test [11]; 0.78 µg/mL (≈ 2.05 µM) in [12]; 0.0063 µg/mL (≈ 0.0166 µM) in test [13] (setting [23]). Also, the MIC in test [14] is 0.025 µg/mL (≈ 0.0658 µM); in [15], 0.025 µg/mL (≈ 0.0658 µM); in [16] it was 0.05 µg/mL (≈ 0.132 µM); in test [17] it was 0.05 µg/mL (≈ 0.132 µM); in test [18], 0.0063 µg/mL (≈ 0.0166 µM).
On to `CC1CN(c2c(F)cc3c(=O)c(C(=O)O)cn(C4CC4)c3c2F)CC1N.Cl` (stereo not drawn) [Example 11, 7-(3-Amino-4-methyl-1-pyrrolidinyl)-1-cyclopropyl-6,8-difluoro-1,4-dihydro-4-oxo-3-quinolinecarboxylic acid hydrochloride], for which the MIC was determined as 0.39 µg/mL in test [2]; 0.39 µg/mL in test [3]; 0.39 µg/mL in test [4]; 0.39 µg/mL in [5]; 0.05 µg/mL in test [6]; 0.39 µg/mL in test [7]. For the same molecule, the MIC is 0.2 µg/mL in test [20]; 0.2 µg/mL in test [8]; 0.05 µg/mL in [9]; 0.39 µg/mL in [10] (setting [24]); 3.13 µg/mL in test [12]; 0.78 µg/mL in [22]. Further, the MIC was 0.0125 µg/mL in test [13] (ML4707); 0.025 µg/mL in test [13] (setting [25]); 0.05 µg/mL in test [14]; 0.05 µg/mL in test [15]; 0.05 µg/mL in test [16]; 0.2 µg/mL in [17]. Moreover, the MIC in test [18] came to 0.025 µg/mL. Also, the ED50 in [19] stood at 1 mg/kg; in test [21], 20.7 mg/kg.
As for `C[C@H]1CN(c2c(F)cc3c(=O)c(C(=O)O)cn(C4CC4)c3c2Cl)C[C@H]1N` (relative stereo) [Example 16, 7-(cis-3-Amino-4-methyl-1-pyrrolidinyl)-8-chloro-1-cyclopropyl-6-fluoro-1,4-dihydro-4-oxo-3-quinolinecarboxylic acid], the ED50 in test [1] came out at 3.7 mg/kg; in test [19] it was 1 mg/kg; in [21], 12.1 mg/kg. Moreover, the MIC in [2] amounted to 0.05 µg/mL (≈ 0.132 µM); in [3] it was 0.05 µg/mL (≈ 0.132 µM); in test [4] it was 0.39 µg/mL (≈ 1.03 µM); in test [5], 0.05 µg/mL (≈ 0.132 µM); in [6], 0.05 µg/mL (≈ 0.132 µM); in test [7] it was 0.05 µg/mL (≈ 0.132 µM). Besides, the MIC in [20] worked out at 0.1 µg/mL; in [8], 0.05 µg/mL (≈ 0.132 µM); in test [9], 0.05 µg/mL (≈ 0.132 µM); in test [10], 0.39 µg/mL (≈ 1.03 µM); in [11], 0.025 µg/mL; in [12] it was 0.78 µg/mL (≈ 2.05 µM). The MIC in test [13] (setting [23]) is 0.0063 µg/mL (≈ 0.0166 µM); in [13] (setting [25]) it was 0.0125 µg/mL (≈ 0.0329 µM); in test [14] it was 0.05 µg/mL (≈ 0.132 µM); in test [15] it was 0.025 µg/mL (≈ 0.0658 µM); in test [16] it was 0.05 µg/mL (≈ 0.132 µM); in test [17], 0.1 µg/mL (≈ 0.263 µM). Also, the MIC in test [18] worked out at 0.0063 µg/mL (≈ 0.0166 µM).
As to `CC1COc2c(N3C[C@@H](N)[C@@H](C)C3)c(F)cc3c(=O)c(C(=O)O)cn1c23.Cl` (relative stereo) [Example 29, 10-(cis-3-Amino-4-methyl-1-pyrrolidinyl)-9-fluoro-2,3-dihydro-3-methyl-7-oxo-7H-pyrido[1,2,3-de][1,4]benzoxazine-6-carboxylic acid hydrochloride], the MIC worked out at 0.78 µg/mL in [2]; 0.78 µg/mL in test [3]; 1.56 µg/mL in test [4]; 1.56 µg/mL in test [5]; 0.2 µg/mL in test [6]; 0.39 µg/mL in test [7]. For the same molecule, the MIC was found to be 0.78 µg/mL in test [8]; 0.2 µg/mL in test [9]; 1.56 µg/mL in [10] (setting [24]); 12.5 µg/mL in test [12]; 6.25 µg/mL in [22]; 0.05 µg/mL in test [13] (setting [23]). Moreover, the MIC in test [14] was 0.2 µg/mL; in test [15], 1.56 µg/mL; in [16], 0.1 µg/mL; in [17], 1.56 µg/mL; in test [18], 0.05 µg/mL.
